Assay results reported in ChEMBL document CHEMBL3885881, “DrugMatrix”.
Values joined by “and” are separate entries in the source; they are usually repeats but may differ in a detail not shown here. Equal values may be shown once.

Species: Rattus norvegicus
Assay: DrugMatrix - Regimen: Daily Repeat
Type: toxicity, organism-based, Sprague-Dawley
Set-up: regimen Daily Repeat, gender Male, age 6-8 weeks
Conditions: in vivo, po, 0 mg/kg, route oral GAVAGE, dose level Control, vehicle .5 % CMC
[1] = 72 h, tissue Plasma, time 3 day
[2] = 120 h, tissue Blood, time 5 day
[3] = 120 h, tissue Plasma, time 5 day

`Cc1ccc2cc3c(ccc4ccccc43)c3c2c1CC3` [3-METHYLCHOLANTHRENE] was tested. Which BASOPHIL (72 h, tissue Blood, time 3 day) did it give?
The BASOPHIL was 0.52%.

What about the EOSINOPHIL (72 h, tissue Blood, time 3 day) of the same molecule?
Its EOSINOPHIL is 0.48%.

And the “ERYTHROCYTE COUNT” value (72 h, tissue Blood, time 3 day)?
Its value is 6.68 x10E6/uL.

And the HEMATOCRIT (72 h, tissue Blood, time 3 day)?
The HEMATOCRIT was 43.07%.

What about the HEMOGLOBIN (72 h, tissue Blood, time 3 day) of the same molecule?
The HEMOGLOBIN was 13.48 G/DL.

What about the “LEUKOCYTE COUNT” value (72 h, tissue Blood, time 3 day) of the same molecule?
Its value is 11.41 x10E3/uL.

What about the LYMPHOCYTE (72 h, tissue Blood, time 3 day) of the same molecule?
The LYMPHOCYTE was 80.78%.

What about the “MEAN CORPUSCULAR HEMOGLOBIN” value (72 h, tissue Blood, time 3 day) of the same molecule?
Its value is 20.2 pg.

What about the “MEAN CORPUSCULAR HEMOGLOBIN CONCENTRATION” value (72 h, tissue Blood, time 3 day) of the same molecule?
Its value is 31.32 G/DL.

What about the “MEAN CORPUSCULAR VOLUME” value (72 h, tissue Blood, time 3 day) of the same molecule?
The value was 64.45 fL.

And the MONOCYTE (72 h, tissue Blood, time 3 day)?
The MONOCYTE was 2.23%.

And the NEUTROPHIL (72 h, tissue Blood, time 3 day)?
The NEUTROPHIL was 14.73%.

What about the “PLATELET COUNT” value (72 h, tissue Blood, time 3 day) of the same molecule?
Its value is 1225.83 x10E3/uL.

What about the “ALANINE AMINOTRANSFERASE” value [1] of the same molecule?
Its value is 44.5 u/L.

And the ALBUMIN [1]?
The ALBUMIN was 3.62 G/DL.

And the “ALKALINE PHOSPHATASE” value [1]?
The value was 404.5 u/L.

And the “ASPARTATE AMINOTRANSFERASE” value [1]?
The value was 71.67 u/L.

What about the “BLOOD UREA NITROGEN” value [1] of the same molecule?
Its value is 15 mg/dL.

And the CHLORIDE [1]?
The CHLORIDE was 103 MEQ/L.

What about the CHOLESTEROL [1] of the same molecule?
The CHOLESTEROL was 96.83 mg/dL.

And the “CREATINE PHOSPHOKINASE” value [1]?
The value was 236 u/L.

And the CREATININE [1]?
Its CREATININE is 0.43 mg/dL.

And the GLUCOSE [1]?
The GLUCOSE was 186.83 mg/dL.

What about the PHOSPHORUS [1] of the same molecule?
Its PHOSPHORUS is 12.67 mg/dL.

And the POTASSIUM [1]?
Its POTASSIUM is 7.1 MEQ/L.

What about the SODIUM [1] of the same molecule?
Its SODIUM is 147.33 MEQ/L.

What about the “TOTAL BILIRUBIN” value [1] of the same molecule?
The value was 0.52 mg/dL.

And the “TOTAL PROTEIN” value [1]?
The value was 6.18 G/DL.

And the ABSOLUTE BASOPHIL [2]?
Its ABSOLUTE BASOPHIL is 92 cells/µL.

What about the ABSOLUTE EOSINOPHIL [2] of the same molecule?
Its ABSOLUTE EOSINOPHIL is 52 cells/µL.

What about the ABSOLUTE LYMPHOCYTE [2] of the same molecule?
The ABSOLUTE LYMPHOCYTE was 6560 cells/µL.

And the ABSOLUTE MONOCYTE [2]?
The ABSOLUTE MONOCYTE was 160 cells/µL.

And the ABSOLUTE SEGMENTED NEUTROPHIL [2]?
Its ABSOLUTE SEGMENTED NEUTROPHIL is 1130 cells/µL.

What about the BASOPHIL [2] of the same molecule?
The BASOPHIL was 1.14% and 0.92%.

And the EOSINOPHIL [2]?
Its EOSINOPHIL is 0.68% and 0.43%.

What about the “ERYTHROCYTE COUNT” value [2] of the same molecule?
The value was 7.51 x10E6/uL and 7.03 x10E6/uL.

What about the HEMATOCRIT [2] of the same molecule?
The HEMATOCRIT was 46.04% and 46.55%.

And the HEMOGLOBIN [2]?
The HEMOGLOBIN was 15.62 G/DL and 14.32 G/DL.

And the “LEUKOCYTE COUNT” value [2]?
The value was 8.03 x10E3/uL and 12.22 x10E3/uL.

And the LYMPHOCYTE [2]?
The LYMPHOCYTE was 81.54% and 82.65%.

And the “MEAN CORPUSCULAR HEMOGLOBIN” value [2]?
Its value is 20.84 pg and 20.35 pg.

What about the “MEAN CORPUSCULAR HEMOGLOBIN CONCENTRATION” value [2] of the same molecule?
Its value is 33.94 G/DL and 30.77 G/DL.

And the “MEAN CORPUSCULAR VOLUME” value [2]?
Its value is 61.42 fL and 66.28 fL.

And the MONOCYTE [2]?
The MONOCYTE was 2% and 2.28%.

And the NEUTROPHIL [2]?
Its NEUTROPHIL is 14.24% and 12.73%.

What about the “PLATELET COUNT” value [2] of the same molecule?
Its value is 1427.2 x10E3/uL and 1268.67 x10E3/uL.

And the “ALANINE AMINOTRANSFERASE” value [3]?
The value was 35.6 u/L and 44.5 u/L.

And the ALBUMIN [3]?
The ALBUMIN was 3.64 G/DL and 3.73 G/DL.

And the “ALKALINE PHOSPHATASE” value [3]?
The value was 233 u/L and 340.83 u/L.

What about the “ASPARTATE AMINOTRANSFERASE” value [3] of the same molecule?
The value was 81 u/L and 66.5 u/L.

And the “BLOOD UREA NITROGEN” value [3]?
The value was 12 mg/dL and 13.33 mg/dL.

What about the CHLORIDE [3] of the same molecule?
Its CHLORIDE is 109.4 MEQ/L and 102.17 MEQ/L.

And the CHOLESTEROL [3]?
Its CHOLESTEROL is 47.6 mg/dL and 82.17 mg/dL.

And the “CREATINE PHOSPHOKINASE” value [3]?
The value was 183.2 u/L and 146.67 u/L.

What about the CREATININE [3] of the same molecule?
Its CREATININE is 0.4 mg/dL and 0.35 mg/dL.

What about the GLUCOSE [3] of the same molecule?
Its GLUCOSE is 134.6 mg/dL and 186.17 mg/dL.

What about the “LACTATE DEHYDROGENASE” value [3] of the same molecule?
Its value is 89.4 u/L.

And the LIPASE [3]?
The LIPASE was 17.2 u/L.

What about the PHOSPHORUS [3] of the same molecule?
Its PHOSPHORUS is 13.02 mg/dL and 11.83 mg/dL.

And the POTASSIUM [3]?
Its POTASSIUM is 7 MEQ/L and 6.47 MEQ/L.

What about the SODIUM [3] of the same molecule?
The SODIUM was 149.6 MEQ/L and 148.83 MEQ/L.
